Each structure is given as a SMILES string. “Also recorded” adds a separate entry of the source.

The target of one series is T1, α1β GlyR (Rattus norvegicus, UniProt P07727+P20781).
T1 construct: The cells were transfected with plasmids encoding the following proteins; expressed in transfected cells; host or cells: HEK293 (ATCC CRL-1573)
Kind of series: cell-based. As for the experimental part: (§1) The cells were transfected with plasmids encoding the following proteins: (i). rat GlyR α (1, 2, 3) subunits alone or combined with rat β subunits (Uniprot Accession Numbers: Q546L7, P22771, P20236, P20781); and (ii). rat GABAAR α1 combined with rat β2 and γ2 subunits (Uniprot Accession Numbers: P62813, P63138, P18508). The EGFP expression was used as a marker of successful protein expression. The transfection was performed using Lipofectamine 2000 (Invitrogen, ThermoFisher, Carlsbad, CA, USA) using the fabricant protocol. The plasmids used to express GlyRs and GABAARs have been previously described. To track the successful expression of GlyR β subunits and the GABAA γ2 or β2 subunit, these proteins were subcloned in the pIRES2-EGFP vector. The transfection ratio to obtain β-containing GlyRs was 1:5 of α:β, while the expression of γ2-containing GABAA receptors was 1:2:5 of α:β:γ2 [14, 15]. Chimeric GlyRs were described in a previous report. Site directed mutagenesis was performed by Charm Gene Science Mutagenex LLC. (Cumming, GA, USA). All the constructs were checked by full-length sequencing (SNPSaurus, Eugene, OR, USA).
(§2) In brief, patch electrodes (3–4 MΩ) were pulled from borosilicate glasses in a PC-100 puller (Narishige, Tokyo, Japan); then, they were filled with an intracellular solution, which contained (in mM) 120 CsCl, 8 EGTA, 10 HEPES (pH 7.4), 4 MgCl2, 0.5 GTP, and 2 ATP. The extracellular solution contained (in mM) 140 NaCl, 5.4 KCl, 2.0 CaCl2, 1.0 MgCl2, 10 HEPES (pH 7.4), and 10 glucose. Whole-cell patch-clamp recordings were performed at −60 mV with an Axoclamp 200B (Molecular Devices, Sunnyvale, CA, USA) or with HEKA EPC-10 (HEKA Elektronik GmbH, Reutlingen, Germany) amplifiers. […] Brief (3–5 s) pulses of agonist together with alkaloids were applied to cells. Stock solutions of the alkaloids were prepared in high purity distilled water. Aliquots of these stock solutions were diluted in reservoirs containing extracellular solution. […] The concentration–response curve parameters for the alkaloid inhibition (IC50, nH, and the maximal current inhibition) were obtained from the fitted curve of normalized concentration–response data points to the equation Iagonist = Imax (agonist)nH/((agonist)nH + (EC50)nH). The IC50 curves are best-fit mean ± SE from pooled data. […] The inhibition constant (Ki) was calculated using the Cheng–Prusoff equation (Ki = IC50/((2 + ([Agonist]/EC50)^nH)^1/nH − 1). The concentration of agonist corresponds to the sub-saturating agonist concentration used to obtain the IC50 for each alkaloid on a given GlyR subtype.

For series [1] the following is noted: in vivo studies; cited from earlier work.
For another series, the target named is T2, α2β GlyR (Rattus norvegicus, UniProt P20781+P22771).
T2 construct: The cells were transfected with plasmids encoding the following proteins; expressed in transfected cells; host or cells: HEK293 (ATCC CRL-1573)
Put plainly: cell-based. It counts as cell-based. As for the experimental part: as §1, §2

The next series has as its target T3, α2 GlyR (Rattus norvegicus, UniProt P22771).
T3 construct: The cells were transfected with plasmids encoding the following proteins; expressed in transfected cells; host or cells: HEK293 (ATCC CRL-1573)
T3 sequence (P22771 28-452): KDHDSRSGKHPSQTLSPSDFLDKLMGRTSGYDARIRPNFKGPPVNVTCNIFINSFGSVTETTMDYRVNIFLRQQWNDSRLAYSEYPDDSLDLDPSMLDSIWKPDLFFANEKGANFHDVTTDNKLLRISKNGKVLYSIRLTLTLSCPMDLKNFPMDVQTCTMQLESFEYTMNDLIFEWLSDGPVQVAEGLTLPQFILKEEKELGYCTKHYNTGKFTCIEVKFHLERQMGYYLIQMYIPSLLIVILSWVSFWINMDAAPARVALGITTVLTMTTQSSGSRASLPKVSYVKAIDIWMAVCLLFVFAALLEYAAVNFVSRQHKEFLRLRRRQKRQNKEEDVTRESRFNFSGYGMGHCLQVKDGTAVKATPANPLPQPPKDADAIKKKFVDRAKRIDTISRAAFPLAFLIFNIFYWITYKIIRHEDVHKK
Kind of series: cell-based. It counts as cell-based. The protocol: as §1, §2

The next series has as its target T4, α3 GlyR (Rattus norvegicus, UniProt P24524).
T4 construct: expressed in transfected cells; host or cells: HEK293 (ATCC CRL-1573)
T4 sequence (P24524 34-464): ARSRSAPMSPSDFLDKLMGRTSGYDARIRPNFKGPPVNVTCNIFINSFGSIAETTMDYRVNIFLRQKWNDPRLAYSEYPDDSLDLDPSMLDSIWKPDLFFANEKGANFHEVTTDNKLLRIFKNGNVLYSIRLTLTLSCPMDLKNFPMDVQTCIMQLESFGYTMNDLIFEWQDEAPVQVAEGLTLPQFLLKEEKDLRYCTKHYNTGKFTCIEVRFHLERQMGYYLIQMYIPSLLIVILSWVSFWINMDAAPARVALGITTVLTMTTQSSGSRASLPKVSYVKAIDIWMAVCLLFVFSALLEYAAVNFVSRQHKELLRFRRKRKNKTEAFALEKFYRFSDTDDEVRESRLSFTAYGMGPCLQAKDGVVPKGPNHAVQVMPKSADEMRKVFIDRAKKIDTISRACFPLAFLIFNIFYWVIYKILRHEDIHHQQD
Put plainly: cell-based. Format: cell-based. The protocol: as §1, §2

The next series concerns the target T5, α1 GlyR (Rattus norvegicus, UniProt P07727).
T5 construct: expressed in transfected cells; host or cells: HEK293 (ATCC CRL-1573)
T5 sequence (P07727 29-457): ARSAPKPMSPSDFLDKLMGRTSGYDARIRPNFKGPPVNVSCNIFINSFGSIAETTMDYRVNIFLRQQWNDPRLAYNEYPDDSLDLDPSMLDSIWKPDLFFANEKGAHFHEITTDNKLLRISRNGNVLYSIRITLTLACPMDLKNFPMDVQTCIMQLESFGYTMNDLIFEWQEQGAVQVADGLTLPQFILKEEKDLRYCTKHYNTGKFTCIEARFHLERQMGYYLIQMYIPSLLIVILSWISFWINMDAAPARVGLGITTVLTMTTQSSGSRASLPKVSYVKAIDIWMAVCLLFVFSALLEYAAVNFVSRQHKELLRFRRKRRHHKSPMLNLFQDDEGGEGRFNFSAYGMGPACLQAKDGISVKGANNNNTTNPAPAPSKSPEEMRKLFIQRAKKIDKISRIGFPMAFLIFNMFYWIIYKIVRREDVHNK
Kind of series: cell-based. It counts as cell-based. As for the experimental part:
as §1, §2

For a further series, the target named is T6, α3β GlyR (Rattus norvegicus, UniProt P20781+P24524).
T6 construct: The cells were transfected with plasmids encoding the following proteins; expressed in transfected cells; host or cells: HEK293 (ATCC CRL-1573)
Kind of series: cell-based. It counts as cell-based. As for the experimental part: as §1
as §2, with “The” for “The inhibition constant (Ki) was calculated using the Cheng–Prusoff equation (Ki = IC50/((2 + ([Agonist]/EC50)^nH)^1/nH − 1). The”

The next series has as its target T7, α1β2γ2 GABAARs (Rattus norvegicus, UniProt P62813+P63138).
T7 construct: The cells were transfected with plasmids encoding the following proteins; expressed in transfected cells; host or cells: HEK293 (ATCC CRL-1573)
Format: cell-based. To be noted: 50 μM alkaloid; 1 μM GABA. The protocol:
as §1
as §2, with “The” for “The inhibition constant (Ki) was calculated using the Cheng–Prusoff equation (Ki = IC50/((2 + ([Agonist]/EC50)^nH)^1/nH − 1). The”

Setting [2] is: percentage change of glycine-evoked current.

T2 sequence (P20781 23-496, one chain of several): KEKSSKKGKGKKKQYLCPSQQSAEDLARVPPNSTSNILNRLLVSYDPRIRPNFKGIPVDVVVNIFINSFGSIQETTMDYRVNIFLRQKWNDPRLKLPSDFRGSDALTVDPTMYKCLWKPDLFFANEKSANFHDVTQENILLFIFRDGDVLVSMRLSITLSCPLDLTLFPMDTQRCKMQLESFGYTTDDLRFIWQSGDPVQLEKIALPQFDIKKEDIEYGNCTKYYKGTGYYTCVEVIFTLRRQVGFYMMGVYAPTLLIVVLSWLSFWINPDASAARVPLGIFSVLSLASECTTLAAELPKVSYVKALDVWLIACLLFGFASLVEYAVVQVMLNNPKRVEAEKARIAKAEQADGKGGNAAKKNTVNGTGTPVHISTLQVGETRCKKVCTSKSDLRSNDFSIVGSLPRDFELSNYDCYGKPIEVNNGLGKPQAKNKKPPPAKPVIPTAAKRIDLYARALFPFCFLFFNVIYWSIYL
T1 sequence (P20781 23-496, one chain of several): as above
T7 sequence (P62813 28-455): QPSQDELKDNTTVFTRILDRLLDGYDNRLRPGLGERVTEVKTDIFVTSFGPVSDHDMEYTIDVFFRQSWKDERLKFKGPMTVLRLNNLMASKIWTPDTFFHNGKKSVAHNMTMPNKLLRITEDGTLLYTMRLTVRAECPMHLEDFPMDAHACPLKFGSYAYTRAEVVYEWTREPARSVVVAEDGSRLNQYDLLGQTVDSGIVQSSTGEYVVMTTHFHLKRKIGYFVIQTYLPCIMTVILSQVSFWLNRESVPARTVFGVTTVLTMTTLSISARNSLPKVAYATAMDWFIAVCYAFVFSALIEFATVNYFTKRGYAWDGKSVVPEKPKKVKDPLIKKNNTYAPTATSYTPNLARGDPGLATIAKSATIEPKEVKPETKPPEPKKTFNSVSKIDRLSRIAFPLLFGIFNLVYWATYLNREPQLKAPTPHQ
T7 sequence (P63138 26-474): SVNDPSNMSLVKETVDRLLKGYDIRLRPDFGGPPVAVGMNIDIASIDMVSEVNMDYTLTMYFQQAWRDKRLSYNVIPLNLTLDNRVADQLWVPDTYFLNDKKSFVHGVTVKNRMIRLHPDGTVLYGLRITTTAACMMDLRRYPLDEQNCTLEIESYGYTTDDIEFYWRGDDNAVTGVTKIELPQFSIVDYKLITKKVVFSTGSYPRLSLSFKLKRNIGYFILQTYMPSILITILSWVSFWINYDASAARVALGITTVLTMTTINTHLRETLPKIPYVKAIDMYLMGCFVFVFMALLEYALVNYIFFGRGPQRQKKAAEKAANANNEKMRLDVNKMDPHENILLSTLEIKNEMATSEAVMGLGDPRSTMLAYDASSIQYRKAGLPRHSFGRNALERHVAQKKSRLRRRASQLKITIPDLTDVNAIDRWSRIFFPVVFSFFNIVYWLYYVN
T7 sequence (P18508 39-466 partner): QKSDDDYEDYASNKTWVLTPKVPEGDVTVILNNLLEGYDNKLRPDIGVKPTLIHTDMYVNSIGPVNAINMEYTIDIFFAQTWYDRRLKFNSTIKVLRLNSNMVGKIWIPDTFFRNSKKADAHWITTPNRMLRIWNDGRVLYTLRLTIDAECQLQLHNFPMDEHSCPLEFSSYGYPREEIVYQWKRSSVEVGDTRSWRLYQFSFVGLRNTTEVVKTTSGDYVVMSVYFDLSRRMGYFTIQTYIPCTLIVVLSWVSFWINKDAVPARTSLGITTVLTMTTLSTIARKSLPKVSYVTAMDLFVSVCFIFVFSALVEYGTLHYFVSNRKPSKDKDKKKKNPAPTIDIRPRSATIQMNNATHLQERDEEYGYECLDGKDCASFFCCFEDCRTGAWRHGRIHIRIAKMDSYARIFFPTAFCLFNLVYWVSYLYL
T6 sequence (P20781 23-496, one chain of several): as the sequence (P20781 23-496, one chain of several) above

As for `CCC1=N[C@H]2C[C@@]3(C(=O)N(OC)c4ccccc43)[C@H]3C[C@@H]1[C@@H]2CO3` [humantenmine], the “Maximal Modulation Concentration” value at α1β GlyR was determined as 0.01 µM; on α2β GlyR, 50 µM; at α2 GlyR, 50 µM; on α3 GlyR, 0.1 µM; at α1 GlyR it was 300 µM; on α3β GlyR, 300 µM. The “Maximal Modulation” value on α1β GlyR (setting [2]) is given as −7.33 ± 10.8%; on α2β GlyR (setting [2]), −10.3 ± 11.2%; on α2 GlyR (setting [2]) it was 8.7 ± 9.6%; at α3 GlyR (setting [2]), −20.2 ± 10.7%; on α1 GlyR (setting [2]) it was −19.2 ± 7.8%; on α3β GlyR (setting [2]) it was −15.6 ± 3.8%. In addition, in series [1], the LD50 result is recorded as “lower than 0.2 mg/kg”. The “modulation of glycine-evoked current” value on α1 GlyR (300 μM of the alkaloid) was −19.2 ± 7.8%. At α1 GlyR (concentration range of 10 μM to 300 μM), the “modulation of α1GlyRs (in words)” value is on record as “did not display any detectable activity; also recorded: did not significantly modulate”. Besides, the “modulation of GABAARs (in words)” value on α1β2γ2 GABAARs is reported as “did not elicit any detectable alterations; also recorded: insensitive”.

Source of the values: publication PMC10970644, “Molecular Pharmacology of Gelsemium Alkaloids on Inhibitory Receptors” (International Journal of Molecular Sciences, 2024).
